Test results as given in PMC10733463, “Berberine-microbiota interplay: orchestrating gut health through modulation of the gut microbiota and metabolic transformation into bioactive metabolites” (Frontiers in Pharmacology, 2023).
Read-outs that look alike come from different tables or passages of the source.

What was measured:
[1] = UPLC-MS/MS quantification of berberine and metabolites in ileal and caecal content; format: in vivo, Ross 308 broiler chickens; conditions: 21 days
Excerpt: (§1) The study was undertaken following the guidelines of the ethics committee of the Faculty of Veterinary Medicine and Bioscience Engineering, Ghent University, in accordance with the EU Directive 2010/63/EU. One-day-old Ross 308 male broilers were obtained from a local hatchery and housed in pens on wood shavings. They were allotted into 4 groups, with three replicate pens per group each housing 8 chickens. The animals were not vaccinated. Water and commercial starter feed (day 1–12, FARM 1 Mash, Country’s Best, Versele Laga, Deinze, Belgium) or grower (day 13–21, FARM 2 mash, Country’s Best, Versele Laga, Deinze, Belgium) were provided ad libitum. The control group received the standard non-supplemented diets, whereas the chickens in other groups were fed the same feed supplemented with 0.1, 0.5 or 1 g berberine/kg feed throughout the whole trial period. At day 21, 4 birds per pen were weighted then euthanized by sodium pentobarbital injection for sampling. Individual jejunal, ileal, caecal and colonic contents were stored at −20°C for microbiota composition analysis (16S rRNA gene sequencing). Additionally, ileal and caecal content samples were collected and stored at −20°C for berberine and berberine-derived metabolite quantification. Duodenal tissue samples were collected and fixed in 4% phosphate buffered formaldehyde for histological analysis. Blood samples were collected in heparin tubes and centrifuged at 524 g for 10 min to recover the plasma fraction, which was further mixed with 17 mg/mL L-ascorbic acid for dihydroberberine stabilization, and stored at −20°C for berberine and berberine-derived metabolite quantification.
(§2) The column temperature was maintained at 25°C. The autosampler temperature was set at 10°C.
250 mg of ileal or caecal content was weighed in a 15 mL polypropylene centrifuge tube and 250 µL of ascorbic acid 170 mg/mL solution was added for stabilization of dihydroberberine, followed by brief vortexing. Subsequently, 25 µL of an internal standard solution containing 250 μg/mL of berberine-d6 and 2.5 μg/mL tetrahydropalmatine were added, followed by brief vortexing. A 2.5 mL volume of extraction solvent was then added, consisting of a 1% (v/v) formic acid solution in methanol. The sample was put on a rotary shaker set at 80 rpm for 20 min, followed by centrifugation (3,720 g, 10 min, 4°C). The supernatant was then diluted, by a factor 5 for measurement of low abundance components, and by a factor 2,000 for measurement of high abundance components. The 1/5 diluted sample extract was prepared directly in an autosampler vial as follows: 200 µL sample extract were mixed with 100 µL ascorbic acid 170 mg/mL solution and 700 µL Milli-Q water. For the 1/2,000 diluted sample extract, an intermediate 1/100 sample dilution was prepared by combining 500 µL sample extract and 49.5 mL of Milli-Q water. 50 μL was then transferred in an autosampler vial followed by the addition of 950 µL of Milli-Q water. For both dilutions, a 5 µL sample aliquot was injected onto the UPLC-MS/MS apparatus. Quantification was based on the ratio of the analyte peak area compared to the peak area of the internal standard tetrahydropalmatine for 1/5 diluted sample extracts, and on the ratio of the analyte peak area compared to the peak area of the internal standard berberine-d6 for 1/2,000 diluted sample extracts.
Calibration standards and quality control samples were prepared as follows: 250 mg of blank ileal or caecal content were supplemented with 250 µL of ascorbic acid 170 mg/mL solution, 25 µL mixed solution of berberine and metabolites (with the exception of dihydroberberine) at different levels, 25 µL of dihydroberberine solution, stabilized with 17 mg/mL ascorbic acid, at different levels and 25 µL of an internal standard solution containing 0.625 μg/mL of berberine-d6 and 2.5 μg/mL tetrahydropalmatine. The calibration curve was in the 62.5–5,000 ng/g range, and included 62.5, 125, 250, 500, 1,000, 2,500, and 5,000 ng/g levels. […]

[2] = rats, 2021, cited from earlier work; for Total recovery in feces: ref Ma et al., 2013, Feng et al.
caecal microbiota = experiment: SCFA quantification in caecal microbiota cultures supplemented with berberine or berberrubine; format: cell-based, broiler chicken; conditions: 24 h
Protocol: As berberine and its demethylated metabolites correlated with SCFAs in vivo, their ability to directly influence SCFA metabolism was assessed in vitro. […] Cultures were centrifuged at 3,724 g for 5 min 1 mL 1:2 diluted supernatant in Milli-Q water was used for SCFA analysis. Acetate, propionate and butyrate were quantified using the GC-FID method described by ([De […] et al., 2010]). This method involves the extraction of SCFA from samples with diethyl ether after the addition of 2-methyl hexanoic acid as an internal standard.

[3] = UPLC-MS/MS quantification of berberine and metabolites in plasma; format: in vivo, Ross 308 broiler chickens; conditions: lowest berberine supplementation level (0.1 g/kg feed)
Excerpt: as §1, §2
A 137.5 µL plasma sample containing 17 mg/mL L-ascorbic acid was used for sample extraction. The ascorbic acid solution was added to prevent oxidation of dihydroberberine to berberine during sample storage ([Feng et al., 2015]). The plasma sample was transferred to an OstroTM 96 well-plate (25 mg) (Waters). Subsequently, 50 µL Milli-Q water and 25 µL of an internal standard solution containing 100 ng/mL of both berberine-d6 and tetrahydropalmatine were added. A 640 µL volume of 1% (v/v) formic acid solution in acetonitrile (1/3 ratio) was added, followed by gentle mixing. Vacuum was applied on the Ostro™ plate for 5 min and the eluate was collected in a 2 mL square 96-well collector plate. The sample was transferred in a glass tube and evaporated at 40°C under a gentle stream of nitrogen in a Pierce (Rockford, United States) Reacti-Therm III™ Heating Module and Reacti-Vap™ III Module. The dried sample extract was reconstituted in 500 µL Milli-Q water, followed by injection of a 5 µL sample aliquot onto the UPLC-MS/MS apparatus. Quantification was based on the ratio of the analyte peak area compared to the peak area of the internal standard berberine-d6.
Calibration standards and quality control samples were prepared as follows: 137.5 µL of blank plasma stabilized with 17 mg/mL L-ascorbic acid were supplemented with 25 µL mixed working solutions of berberine and metabolites (except dihydroberberine) at different levels, 25 µL of dihydroberberine working solution, stabilized with 17 mg/mL L-ascorbic acid, at different levels and 25 µL of an internal standard solution containing 100 ng/mL of both berberine-d6 and tetrahydropalmatine. The calibration curve was in the 0.1–100 ng/mL range, including 0.1, 0.5, 1, 2.5, 5, 10, 25, […], 50 and 100 ng/mL levels.
The UPLC-MS/MS analysis method for the quantification of berberine and berberine-derived metabolites both in plasma and ileal/caecal intestinal content was validated to the guidelines of the European Medicines Agency, i.e., of the Committee for Veterinary Medicinal Products (EMEA/CVMP/VICH/463202/2009) and of the Committee for Medicinal Products for Human Use (EMEA/CHMP/EWP/192217/20), and in accordance with the EU Directive 2002/657/EC. […]

[4] = oral administration of berberine, ref Feng et al.

Structure (SMILES)	Ratio caecum / ileum (concentration) ([1]; 0.1 g berberine/kg feed)	Ratio caecum / ileum (concentration) ([1]; 0.5 g berberine/kg feed)	Ratio caecum / ileum (concentration) ([1]; 1 g berberine/kg feed)	Total recovery in feces ([2]; oral berberine 48.2 mg/kg) [%]	Total recovery in feces ([2]; oral berberine 200 mg/kg) [%]	SCFA production in caecal microbiota cultures (caecal microbiota; 25, 2.5 µM)	Excretion in bile [2, 4] [%]	Excretion in feces [2, 4] [%]	Excretion in urine [2, 4] [%]	Quantification in plasma [3]	Concentrations of acetate, butyrate and propionate in caecal microbiota cultures (caecal microbiota; higher concentration (2.5 µM))
COc1ccc2cc3[n+](cc2c1OC)CCc1cc2c(cc1-3)OCO2 [Berberine, Berberine chloride]	0.07	0.14	0.22	8.4	19.05	did not significantly affect	–	–	–	–	–
COc1ccc2cc3[n+](cc2c1O)CCc1cc2c(cc1-3)OCO2 [Berberrubine, berberrubine chloride]	21.43	29.98	63.80	18.6	1.14	–	2.6	18.6	1.2	could also not be quantified	increased
COc1cc2c(cc1O)CC[n+]1cc3c(OC)c(OC)ccc3cc1-2 [Jatrorrhizine, Jatrorrhizine chloride]	0.31	0.49	0.72	–	–	–	–	–	–	could also not be quantified	–
